Earlier results as cited in patent publication US5578629A, “Benzamide-containing inhibitors of farnesyl-protein transferase” (Merck & Co., Inc., priority 1995, dated 1996).

Tested on: farnesyl-protein transferase
Conditions: via inhibition of HMG-CoA reductase

SMILES | Indirect inhibition of farnesyl-protein transferase in vivo
CC[C@H](C)C(=O)O[C@H]1CCC=C2C=C[C@H](C)[C@H](CC[C@@H]3C[C@@H](O)CC(=O)O3)[C@H]21 [compactin] | Indirect inhibition of farnesyl-protein transferase in vivo has been demonstrated
CC[C@H](C)C(=O)O[C@H]1C[C@@H](C)C=C2C=C[C@H](C)[C@H](CC[C@@H]3C[C@@H](O)CC(=O)O3)[C@H]21 [lovastatin] | Indirect inhibition of farnesyl-protein transferase in vivo has been demonstrated
